This is an account of results in ChEMBL document CHEMBL1201862, “PubChem BioAssay data set” (2004).

Experiment in all cases: NCI anticancer screen, dose series, 48 h
Assay [1] deals with ACHN.
The test system of assay [2] is UACC-257.
The test system of assay [3] is SF-295.
In assay [4] the test system is CAKI-1.
Assay [5] relates to OVCAR-8.
Assay [6] relates to TK-10.
For assay [7], the system named is SK-MEL-5.
Assay [8] has as its system SW-620.
Assay [9] has as its system MDA-N.
Assay [10] has as its system UACC-62.
In assay [11] the test system is SF-539.
Assay [12] has as its system LOX IMVI.
Assay [13] concerns IGROV-1.
Assay [14] concerns SN12C.
Assay [15] deals with KM12.
Assay [16] relates to HCT-116.
For assay [17], the system named is UO-31.
Assay [18] has as its system MOLT-4.
Assay [19] concerns NCI-H23.
Assay [20] relates to HCT-15.

Several values for one entry are separate records, joined by “and”; a condition that tells them apart may be missing. Equal entries are not always repeated.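 Exposure lasted 48 hours, with cells grown in 96-well plates and compounds tested at five concentrations. GI50 marks 50% less growth.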 Activity calls are given as the source filed them. No stated cut-off is given here; in the data, active = GI50 up to about 1.1 µM and inactive = higher.

As for `O=C(O)C1C2C=CC(O2)C1C(=O)NCc1ccncc1` (centres undefined), the GI50 in [1], in assay [2], in [3], in [4], in [5] and in [6] was > 100 µM (inactive) throughout. Besides, the GI50 in [7], in assay [8], in assay [9], in assay [10], in [11] and in assay [12] was > 100 µM (inactive) throughout. Moreover, the GI50 in assay [13], in assay [14], in assay [15], in [16] and in assay [17] was > 100 µM (inactive) throughout.
Turning to `CCN1CCC(O)(/C=C/c2ccc(OC)cc2)C(C(=O)/C=C/c2ccc(OC)cc2)C1` (centres undefined), the GI50 in assay [1] is 13.7 µM (inactive); in [2], 11.1 µM (inactive); in assay [3], 11.8 µM (inactive); in [5], > 10 µM (inactive); in [6] it was 13.8 µM (inactive); in assay [8], 4.53 µM (inactive). In addition, the GI50 is 2.72 µM (inactive) in assay [18]; 7.5 µM (inactive) in [9]; 12 µM (inactive) in assay [10]; 12.4 µM (inactive) in assay [19]; 13.7 µM (inactive) in [11]; 2.37 µM (inactive) in assay [12]. Also, the GI50 in [20] is greater than 10 µM; in assay [13], 13.7 µM (inactive); in assay [14], 14.8 µM (inactive); in [15], 7.8 µM (inactive); in [16], 3.81 µM (inactive); in assay [17] it was 9.93 µM (inactive).
With `COc1cccc(N(CN2C(=O)CCC2OC)C(C)=O)c1` (centres undefined), the GI50 in [1], in assay [2], in assay [3], in [4], in [5] and in assay [6] was > 100 µM (inactive) in each case. For the same compound, the GI50 in [7], in [8], in assay [18], in assay [9], in [10] and in [19] was > 100 µM (inactive) throughout. In addition, the GI50 in [11] is > 100 µM (inactive); in assay [12] it was > 100 µM (inactive); in [20] it was greater than 100 µM; in assay [14], > 100 µM (inactive); in assay [15] it was > 100 µM (inactive); in [16] it was > 100 µM (inactive). In assay [17], the GI50 was > 100 µM (inactive).
For the compound `N#CCCC1(CCC#N)CCCCCCCCC(CCC#N)(CCC#N)C(O)C1O` (centres undefined), the GI50 in assay [1] was > 100 µM (inactive); in assay [2], > 100 µM (inactive); in assay [3] it was > 100 µM (inactive); in assay [4], > 100 µM (inactive); in assay [5], > 100 µM (inactive); in assay [6] it was 74.8 µM (inactive). The GI50 is > 100 µM (inactive) in assay [7]; > 100 µM (inactive) in [8]; > 100 µM (inactive) in assay [9]; > 100 µM (inactive) in [10]; > 100 µM (inactive) in assay [19]; 29.8 µM (inactive) in assay [11]. Moreover, the GI50 in assay [12] is > 100 µM (inactive); in [20], greater than 100 µM; in [13] it was > 100 µM (inactive); in assay [14] it was > 100 µM (inactive); in assay [15] it was > 100 µM (inactive); in assay [16], > 100 µM (inactive).
Regarding `NC1=C(c2nc(-c3ccccc3)cs2)C(c2ccco2)c2c(c3ccccc3oc2=O)O1` (centres undefined), the GI50 in assay [1], in assay [2], in assay [3], in [4], in [5] and in assay [6] was > 100 µM (inactive) each time. The GI50 in assay [7], in [8], in assay [9], in assay [10], in [19] and in [11] was > 100 µM (inactive) in each case. The GI50 in assay [12] was > 100 µM (inactive); in [20], greater than 100 µM; in assay [13], > 100 µM (inactive); in assay [14] it was > 100 µM (inactive); in assay [16] it was > 100 µM (inactive); in assay [17] it was > 100 µM (inactive).
As for `CN(C)CC1=Nc2cccc3cccc(c23)N1`, the GI50 in [1] was 14.9 µM (inactive); in assay [2] it was 16.9 µM (inactive); in assay [3], > 100 µM (inactive); in assay [4], 21.5 µM (inactive); in assay [5], 33.8 µM (inactive); in [6], 18.4 µM (inactive). For the same compound, the GI50 was 15.4 µM (inactive) in assay [7]; 4.08 µM (inactive) in [8]; 18.4 µM (inactive) in [9]; 16.1 µM (inactive) in [10]; 22.9 µM (inactive) in [19]; 19.8 µM (inactive) in [11]. In addition, the GI50 in assay [12] is 19.4 µM (inactive); in assay [20], 23.8 µM; in [13] it was 18.5 µM (inactive); in assay [14] it was 16.8 µM (inactive); in assay [15] it was 25.6 µM (inactive); in assay [16], 8.15 µM (inactive). Besides, the GI50 in assay [17] is 9.16 µM (inactive).
For `COC(=O)C1=C(CCCCO[Si](C)(C)C(C)(C)C)NC(=O)N2[C@H](CCOCc3ccccc3)CC[C@@H]12`, the GI50 in assay [1] is > 100 µM (inactive); in assay [2] it was 24.7 µM (inactive); in [3], 33.1 µM (inactive); in [4] it was 34 µM (inactive); in assay [6], > 100 µM (inactive); in [7], 13 µM (inactive). Also, the GI50 in [18] is > 100 µM (inactive); in assay [9] it was 55.3 µM (inactive); in assay [10] it was > 100 µM (inactive); in [19], 17.6 µM (inactive); in [11], 33.7 µM (inactive); in assay [20] it was 40.6 µM. The GI50 in assay [14] is 30.1 µM (inactive); in [15], 49.5 µM (inactive); in assay [16], 24 µM (inactive); in assay [17], 43.9 µM (inactive).
As for `CC(=O)Oc1ccc(-c2cc3ccccc3oc2=O)cc1OC(C)=O`, the GI50 in [1] was 16.8 µM (inactive); in assay [2] it was 24.4 µM (inactive); in [3], 28.2 µM (inactive); in [5] it was 24.1 µM (inactive); in [6] it was 22.1 µM (inactive); in assay [8], 33.3 µM (inactive). In addition, the GI50 was 3.47 µM (inactive) in assay [18]; 25.8 µM (inactive) in [9]; 53.2 µM (inactive) in assay [19]; 21.6 µM (inactive) in [11]; 30.5 µM (inactive) in [12]; 10.7 µM in [20]. Besides, the GI50 in assay [14] was 53.7 µM (inactive); in assay [15], 11.8 µM (inactive); in assay [16], 34.7 µM (inactive); in assay [17], 10.9 µM (inactive).
As for `CC1OC(OC2C(OC(=O)[C@]34CCC(C)(C)C[C@H]3C3=CC[C@@H]5[C@@]6(C)CC[C@H](OC7OC(CO)C(O)C(O)C7OC7OC(CO)C(O)C(O)C7O)C(C)(C)[C@@H]6CC[C@@]5(C)[C@]3(C)CC4)OCC(O)C2O)C(O)C(O)C1OC1OCC(O)C(OC2OCC(O)C(O)C2O)C1O` (some centres undefined), the GI50 was 5.98 µM (inactive) and 4.8 µM (inactive) in assay [1]; 2.22 µM (inactive) and 2.33 µM (inactive) in assay [2]; 3.44 µM (inactive) and 3.78 µM (inactive) in [3]; 3.6 µM (inactive) and 4 µM (inactive) in [4]; 7.74 µM (inactive) and 11.6 µM (inactive) in assay [5]; 8.41 µM (inactive) and 8.63 µM (inactive) in [6]. Also, the GI50 in assay [7] is 2.82 µM (inactive) and 3.24 µM (inactive); in assay [8], 10.4 µM (inactive) and 11 µM (inactive); in assay [9], 1.64 µM (inactive) and 1.88 µM (inactive); in assay [10] it was 2.21 µM (inactive) and 2.5 µM (inactive); in assay [19], 2.42 µM (inactive) and 3.1 µM (inactive); in [11], 29.2 µM (inactive) and 19.5 µM (inactive). Moreover, the GI50 in assay [12] is 9.98 µM (inactive) and 11.1 µM (inactive); in assay [20] it was 12.9 µM and 13 µM; in assay [13], 11.9 µM (inactive) and 8.38 µM (inactive); in [14] it was 2.15 µM (inactive); in [15] it was 3.74 µM (inactive) and 3.59 µM (inactive); in assay [16], 5.04 µM (inactive) and 3.85 µM (inactive). Further, in [17], the GI50 was 1.88 µM (inactive) and 1.99 µM (inactive).
On to `CC(C)=CCC(O)[C@](C)(O)[C@H]1[C@H](O)C[C@@]2(C)[C@@H]3CCc4cc(O)c(OC5OC(CO)C(O)C(O)C5O)cc4C3(C)C(=O)C[C@]12C` (some centres undefined), for which the GI50 in assay [1], in assay [2], in assay [3], in [4], in assay [5] and in assay [6] was > 100 µM (inactive) each time. Further, the GI50 in [7], in assay [8], in [18], in assay [9], in assay [10] and in assay [19] was > 100 µM (inactive) in each case. The GI50 in [11] was > 100 µM (inactive); in [20], greater than 100 µM; in assay [13], 89.3 µM (inactive); in assay [14] it was > 100 µM (inactive); in assay [15], > 100 µM (inactive); in assay [16], > 100 µM (inactive). Also, the GI50 in assay [17] was > 100 µM (inactive).
